Measurements from patent US20220017623A1, “TREATMENT OF CANCER USING A CEA CD3 BISPECIFIC ANTIBODY AND A WNT SIGNALING INHIBITOR” (Hoffmann-La Roche Inc., priority 2019, published 2022).

Assays:
[1] = system: cell surface CEA expression of colorectal cancer organoid lines; assay: Wnt/β-catenin pathway inhibition assay: cell surface CEA expression of PDOs by flow cytometry; assay type: cell-based, human; conditions: PDOs with mixed CEA expression; 10 μM for 3 days; FACS
Experimental: Two PDO lines with mixed CEA expression were treated with an inhibitor of WNT signalling: the tankyrase inhibitor compound 21 which inhibits the downstream WNT/β-catenin pathway by stabilizing the β-catenin destruction complex (Elliott et al., Med Chem Comm. 2015; 6(9):1687-92; Mariotti et al., Br J Pharmacol. 2017; 174(24):4611-36).
Cell lines were harvested using enzyme-free Cell Dissociation Buffer (Thermo Fisher) and PDOs with TrypLE Express (Gibco). 2×10^5 cells were stained with 20 nM of the human anti-human CEA antibody CH1A1A (Roche) and 25 ug/ml of the R-Phycoerythrin conjugated secondary antibody AffiniPure F(ab′)2 Fragment Goat Anti-Human IgG, Fcγ Fragment Specific (Stratech). DRAQ7 (Biostatus) staining was included for dead cell exclusion. CEA expression was analysed on a Sony SH800 flow cytometer. Gate boundaries were set at the trough between high and low CEA populations in PDOs with mixed CEA expression and identical gates were used across all samples. The percentage of CEAhi and CEAlo populations and mean fluorescence intensities (MFI) were calculated for each PDO.
10^5 PDO cells/well were seeded in 12 well plates and allowed to attach overnight. […] Cells were harvested using TrypLE Express, stained for CEA with the CH1A1A primary antibody and the R-Phycoerythrin conjugated secondary antibody and analyzed by FACS as described above.

[2] = system: patient derived colorectal cancer organoids (PDOs); assay: allogeneic CD8 T cell co-culture assay with patient derived colorectal cancer organoids, GFP confluence growth assessment; assay type: cell-based, human; conditions: CEAhi PDO CRC-01; E:T 2:1; 20 nM
Experimental: In order to assess the sensitivity of patient-derived colorectal cancer organoids (PDOs) to cibisatamab immunotherapy, eight patient derived colorectal cancer organoid lines with various cell surface CEA expression levels were generated and treated with cibisatamab (20 nM) or an untargeted control antibody (20 nM) during 10 days of co-culture with allogeneic CD8 T cells. CD8 T cells were isolated from allogeneic healthy donor peripheral blood mononuclear cells (PBMCs) by magnetic bead sorting and expanded in vitro with IL2 and CD3/CD28 beads for 7-14 days. GFP-tagged CRC PDO cells were then seeded in 96 well plates, T cells were added the following day and the co-cultures were imaged every 2-3 days on an automated 96 well plate fluorescence microscope. […] Co-culture with CD8 T cells without any antibody was included as a further control to enable the identification of alloreactive donor T cells. […]
PDOs were harvested with TrypLE Express and neutralised with DMEM/F12 Ham medium (Sigma Aldrich) with 10% FBS. Cells were filtered through a 70 μm filter, counted and resuspended in phenol-red free RPMI medium (Thermo Fisher) supplemented with 10% FBS (Biosera), 1× Glutamax and 100 units penicillin-streptomycin. […]
The GFP confluence was quantified every 48h-72h over a 10-day period using the GFP confluence application on the Celigo Imaging Cytometer (Nexcelom Bioscience). […]

Molecule | effect on CEA expression and CEAhi subpopulation [1] | growth suppression activity of T cells in the presence of antibody [2]
Cc1cc(-c2ncc(CC(=O)Nc3ccc(-c4cnccn4)cn3)cc2C)ccn1 [LGK-974] | increase in CEA expression and the CEAhi subpopulation | –
DP47-TCB: untargeted antibody used as a negative control [reference compound] | – | no activity
